{"source": "patent US20040235922A1", "about": "“Compositions and methods for inducing adipose tissue cell death” (priority 2003, published 2004)", "tested_on": "EPI/PAR and RP fat pads", "assay": "EPI/PAR and RP fat pad apoptosis, % DNA fragmentation (Example 2)", "assay_type": "in vivo", "settings": "200 ppm in diet, 21 days, WT and GDF-8 KO mice", "protocol": "Animals: Twelve-week old male (n=10) and female (n=10) GDF-8 (−/−) knockout mice and male (n=10) and female (n=10) GDF-8 (+/+) WT mice were used in the study. GDF-8 knockout mice, which were derived from the 129/SvJ mouse strain, were originally obtained from MetaMorphix Inc. and were bred in-house for the study. Mice were housed singly in suspended wire cages in a room maintained at 22±1 C and with a 12:12 hour light/dark cycle. Mice were provided ground rodent chow (ProLab® RMH 2500; Purina Mills, St. Louis, Mo.) and water ad libitum. Mice were cared for in accordance with the Guide for the Care and Use of Laboratory Animals.\nMaterials: Clenbuterol (Sigma Chemical Company, St. Louis, Mo., item# C5423), was thoroughly mixed into the ground rodent chow to provide a 200 ppm concentration.\nDNA Isolation and Apoptosis Assay: DNA was isolated from fresh fat tissues and separated into two fractions: fragmented and genomic DNA. The samples were first run on an agarose gel to identify a ladder pattern of internucleosomal DNA degradation, which is characteristic of apoptosis (Qian, H., M. J. Azain, M. M. Compton, D. L. Hartzell, G. J. Hausman, and C. A. Baile, Brain administration of leptin causes deletion of adipocytes by apoptosis. Endocrinology, 1998. 139(2): p. 791-4). Apoptosis was then quantified as the ratio of fragmented- to total-DNA as previously described (Gullicksen, P. S., R. G. Dean, and C. A. Baile, Detection of DNA Fragmentation and Apoptotic Proteins, and Quantification of Uncoupling Protein Expression by Real-Time RT-PCR in Adipose Tissue. J Biochem Biophys Methods, 2004. 58(1): p. 1-13). […] DNA content was measured using PicoGreen (Molecular Probes, Inc., Eugene, Oreg.) on a SpectraMax Gemini Spectrofluorometer (Molecular Devices, Sunnyvale, Calif.). […] Apoptosis was verified by the presence of a DNA ladder pattern, which was visualized by a Fluor Chem 8000 fluorescence imaging system (Alpha Innotech, San Leandro, Calif.).\nStatistical Analysis: The study was analyzed as a 2×2×2 factorial design (N=5/cell). […]"}
{"smiles": "CC(C)(C)NCC(O)c1cc(Cl)c(N)c(Cl)c1", "note": "(stereo not drawn) [Clenbuterol, clenbuterol]", "values": [{"measurement": "Adipocyte apoptosis in EPI/PAR and RP fat pads compared to control", "value": "increased"}, {"measurement": "% DNA Fragmentation EPI/PAR", "setting": "Mean ± SEM, control 0.9 ± 0.1", "value": "2.5 ± 0.2", "unit": "%"}, {"measurement": "% DNA Fragmentation RP", "setting": "Mean ± SEM, control 0.9 ± 0.2", "value": "2.5 ± 0.2", "unit": "%"}]}
